Assay results published in PubChem BioAssay AID248 (DTP/NCI, 2004).
Several values for one entry are separate records, joined by “and”; a condition that tells them apart may be missing. Identical values can stand only once. Toxic doses and inconclusive results are not listed. Rule as the data show it: active = T/C of 150% or more; inactive = T/C below 125%.

Test system: L1210 leukemia ip in BDF1 mice, survival T/C
Assay: NCI In Vivo Anticancer Drug Screen. Data for tumor model L1210 Leukemia (intraperitoneal) in B6D2F1 (BDF1) mice
Settings: endpoint: mean survival time, higher = longer survival
Method in brief: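 Survival endpoint. Drug-treated group vs vehicle group, expressed as T divided by C. Tumor passaged by transplantation.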

[1] = dose: 100.0 mg/kg/injection, schedule: Q04DX002 (ip), vehicle: saline
[2] = dose: 200.0 mg/kg/injection, schedule: Q04DX002 (ip), vehicle: saline
[3] = dose: 400.0 mg/kg/injection, schedule: Q04DX002 (ip), vehicle: saline
[4] = dose: 50.0 mg/kg/injection, schedule: Q01DX009 (ip), vehicle: Klucel (hydroxypropylcellulose) (HPC)
[5] = dose: 100.0 mg/kg/injection, schedule: Q04DX003 (ip), vehicle: Klucel (hydroxypropylcellulose) (HPC)
[6] = dose: 100.0 mg/kg/injection, schedule: Q01DX001 (ip), vehicle: carboxymethylcellulose (CMC)
[7] = dose: 200.0 mg/kg/injection, schedule: Q01DX001 (ip), vehicle: carboxymethylcellulose (CMC)
[8] = dose: 400.0 mg/kg/injection, schedule: Q01DX001 (ip), vehicle: carboxymethylcellulose (CMC)
[9] = dose: 100.0 mg/kg/injection, schedule: Q04DX003 (ip), vehicle: saline with Tween-80
[10] = dose: 200.0 mg/kg/injection, schedule: Q04DX003 (ip), vehicle: saline with Tween-80
[11] = dose: 100.0 mg/kg/injection, schedule: Q01DX009 (ip), vehicle: Klucel (hydroxypropylcellulose) (HPC)
[12] = dose: 200.0 mg/kg/injection, schedule: Q01DX009 (ip), vehicle: Klucel (hydroxypropylcellulose) (HPC)
[13] = dose: 200.0 mg/kg/injection, schedule: Q04DX003 (ip), vehicle: Klucel (hydroxypropylcellulose) (HPC)
[14] = dose: 400.0 mg/kg/injection, schedule: Q04DX003 (ip), vehicle: Klucel (hydroxypropylcellulose) (HPC)
[15] = dose: 100.0 mg/kg/injection, schedule: Q01DX009 (ip), vehicle: saline
[16] = dose: 100.0 mg/kg/injection, schedule: Q04DX003 (ip), vehicle: saline
[17] = dose: 200.0 mg/kg/injection, schedule: Q01DX009 (ip), vehicle: saline
[18] = dose: 200.0 mg/kg/injection, schedule: Q04DX003 (ip), vehicle: saline
[19] = dose: 400.0 mg/kg/injection, schedule: Q01DX009 (ip), vehicle: saline
[20] = dose: 400.0 mg/kg/injection, schedule: Q04DX003 (ip), vehicle: saline
[21] = dose: 100.0 mg/kg/injection, schedule: Q01DX001 (ip), vehicle: other
[22] = dose: 200.0 mg/kg/injection, schedule: Q01DX001 (ip), vehicle: other
[23] = dose: 400.0 mg/kg/injection, schedule: Q01DX001 (ip), vehicle: other

Measured: T/C

CCCCCCOC(=O)C1OC1(C)c1ccccc1 (centres undefined)
inactive: [1] 108 % of control | [2] 112 % of control | [3] 93 % of control

O=NO.O=N[O-].O=N[O-].[Co+3].[NH2-].[NH2-].[NH2-].[NH2-]
inactive: dose: 12.0 mg/kg/injection, schedule: Q01DX009 (ip), vehicle: Klucel (hydroxypropylcellulose) (HPC) 100 % of control | dose: 25.0 mg/kg/injection, schedule: Q01DX009 (ip), vehicle: Klucel (hydroxypropylcellulose) (HPC) 107 % of control | dose: 25.0 mg/kg/injection, schedule: Q04DX003 (ip), vehicle: Klucel (hydroxypropylcellulose) (HPC) 103 % of control | [4] 102 % of control | dose: 50.0 mg/kg/injection, schedule: Q04DX003 (ip), vehicle: Klucel (hydroxypropylcellulose) (HPC) 96 % of control | [5] 94 % of control and 110 % of control

COc1cc(C2C(C(=O)OC/C=C/c3ccc4c(c3)OCO4)C(c3cc(OC)c(OC)c(OC)c3)C2C(=O)OC/C=C/c2ccc3c(c2)OCO3)cc(OC)c1OC (centres undefined)
inactive: [6] 90 % of control | [7] 95 % of control | [8] 88 % of control

C(=C\C1SCCCS1)/c1ccccc1
inactive: dose: 100.0 mg/kg/injection, schedule: Q04DX002 (ip), vehicle: saline with Tween-80 101 % of control | dose: 200.0 mg/kg/injection, schedule: Q04DX002 (ip), vehicle: saline with Tween-80 114 % of control | dose: 400.0 mg/kg/injection, schedule: Q04DX002 (ip), vehicle: saline with Tween-80 101 % of control

COc1cc(/C=C2\C(=O)C=C(C)CC2(C)C)ccc1O
inactive: dose: 25.0 mg/kg/injection, schedule: Q04DX003 (ip), vehicle: saline with Tween-80 92 % of control | dose: 50.0 mg/kg/injection, schedule: Q04DX003 (ip), vehicle: saline with Tween-80 89 % of control | [9] 89 % of control | [10] 90 % of control

CCCCCCCCCCCCCCSCCCCCCSCCCCCCCCCCCCCC
inactive: dose: 100.0 mg/kg/injection, schedule: Q01DX001 (ip), vehicle: Klucel (hydroxypropylcellulose) (HPC) 98 % of control | dose: 200.0 mg/kg/injection, schedule: Q01DX001 (ip), vehicle: Klucel (hydroxypropylcellulose) (HPC) 93 % of control | dose: 400.0 mg/kg/injection, schedule: Q01DX001 (ip), vehicle: Klucel (hydroxypropylcellulose) (HPC) 94 % of control

COP(=O)(NC12CC3CC(CC(C3)C1)C2)OC
inactive: [11] 103 % of control | [5] 97 % of control | [12] 100 % of control | [13] 95 % of control | dose: 400.0 mg/kg/injection, schedule: Q01DX009 (ip), vehicle: Klucel (hydroxypropylcellulose) (HPC) 101 % of control | [14] 95 % of control

C=C/C=C1\CCOC1=O
inactive: dose: 100.0 mg/kg/injection, schedule: Q01DX001 (ip), vehicle: saline 102 % of control | [15] 101 % of control and 112 % of control | [1] 100 % of control and 111 % of control | [16] 112 % of control | dose: 200.0 mg/kg/injection, schedule: Q01DX001 (ip), vehicle: saline 116 % of control | [17] 104 % of control and 118 % of control | [2] 104 % of control | [18] 100 % of control | dose: 400.0 mg/kg/injection, schedule: Q01DX001 (ip), vehicle: saline 110 % of control | [19] 107 % of control and 115 % of control | [3] 100 % of control and 102 % of control | [20] 115 % of control

O=C(Nc1[nH]nc2nccnc12)C(F)(F)F
inactive: dose: 100.0 mg/kg/injection, schedule: Q01DX009 (ip), vehicle: saline with Tween-80 97 % of control | [9] 105 % of control | dose: 200.0 mg/kg/injection, schedule: Q01DX009 (ip), vehicle: saline with Tween-80 92 % of control | [10] 97 % of control | dose: 400.0 mg/kg/injection, schedule: Q01DX009 (ip), vehicle: saline with Tween-80 103 % of control | dose: 400.0 mg/kg/injection, schedule: Q04DX003 (ip), vehicle: saline with Tween-80 100 % of control

O=C(O)C(CCl)(CCl)CCl
inactive: dose: 50.0 mg/kg/injection, schedule: Q01DX009 (ip), vehicle: saline 106 % of control | [15] 98 % of control | [17] 95 % of control

OCC(O)C1OC(c2ccccc2)OC1C(O)CO (centres undefined)
inactive: [16] 105 % of control | [18] 92 % of control | [20] 99 % of control

CSc1nc(Cl)c(Br)c(N2CC2)n1
inactive: dose: 100.0 mg/kg/injection, schedule: Q01DX Z (ip), vehicle: methylcellulose (MC) 110 % of control | dose: 200.0 mg/kg/injection, schedule: Q01DX Z (ip), vehicle: methylcellulose (MC) 108 % of control

O=c1[nH]nc(CCc2ccc([N+](=O)[O-])cc2)o1
inactive: [15] 93 % of control | [17] 94 % of control | [19] 104 % of control

NC(C(=O)O)C(CC(=O)O)C(=O)O (centres undefined)
inactive: [16] 93 % of control | [18] 95 % of control | [20] 98 % of control

S=C1N(C2CCCCC2)CCN1C1CCCCC1
inactive: dose: 100.0 mg/kg/injection, schedule: Q04DX002 (ip), vehicle: Klucel (hydroxypropylcellulose) (HPC) 97 % of control

C[n+]1c(I)ccc2ccccc21
inactive: [21] 105 % of control | [22] 105 % of control | [23] 110 % of control

CC(C)=CCN1CCN=C(c2ccccc2)c2cc(Cl)ccc21
inactive: [4] 100 % of control | [11] 105 % of control | [5] 102 % of control | [12] 94 % of control | [13] 98 % of control | [14] 93 % of control

CCC(C#N)C(=O)NC(N)=O (centres undefined)
inactive: [16] 97 % of control | [18] 92 % of control | [20] 91 % of control

COc1cc(Cl)ccc1NC(=O)Oc1ccc(C(=O)OCc2ccccc2)cc1
inactive: [15] 103 % of control | [17] 97 % of control | [19] 111 % of control

NC(Cc1cc(O)c(O)c(S(=O)(=O)c2ccccc2)c1)C(=O)O (centres undefined)
inactive: dose: 87.5 mg/kg/injection, schedule: Q01DX009 (ip), vehicle: saline 98 % of control | dose: 175.0 mg/kg/injection, schedule: Q01DX009 (ip), vehicle: saline 96 % of control | dose: 350.0 mg/kg/injection, schedule: Q01DX009 (ip), vehicle: saline 107 % of control

O=C(C[P+](c1ccccc1)(c1ccccc1)c1ccccc1)c1ccc(Br)cc1
inactive: dose: 50.0 mg/kg/injection, schedule: Q01DX001 (ip), vehicle: other 100 % of control | [21] 87 % of control | [22] 103 % of control | [23] 105 % of control

CC(C)CN(CC(C)C)Cn1nnc2ccccc21
inactive: dose: 75.0 mg/kg/injection, schedule: Q01DX001 (ip), vehicle: carboxymethylcellulose (CMC) 100 % of control | dose: 150.0 mg/kg/injection, schedule: Q01DX001 (ip), vehicle: carboxymethylcellulose (CMC) 94 % of control | dose: 300.0 mg/kg/injection, schedule: Q01DX001 (ip), vehicle: carboxymethylcellulose (CMC) 108 % of control

CC(=O)c1ccc(N=Nc2c(N)nc(N)[nH]c2=O)cc1
inactive: [6] 101 % of control | [7] 106 % of control | [8] 119 % of control
